Reference: ChEMBL document CHEMBL1201862, “PubChem BioAssay data set” (2004)
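96-well plates; 48 h exposure; 5 concentrations. Endpoints by linear interpolation between flanking doses. Not reached: highest tested concentration assigned. GI50 marks 50% less growth.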 Active and inactive are the calls of the source. Cut-off read from the data, not from the text of the source: active = GI50 up to about 1.1 µM and inactive = higher.

Legend:
Test in all cases: inhibition of tumour cell growth, NCI panel, 48 h
EKVX = test system: EKVX
HL-60 = test system: HL-60
A549 = test system: A549
PC-3 = test system: PC-3
HCT-116 = test system: HCT-116
TK-10 = test system: TK-10
MDA-N = test system: MDA-N
M14 = test system: M14
SN12C = test system: SN12C
MOLT-4 = test system: MOLT-4
HOP-92 = test system: HOP-92
SR = test system: SR
SF-268 = test system: SF-268
OVCAR-4 = test system: OVCAR-4
786-0 = test system: 786-0
SNB-19 = test system: SNB-19
LOX IMVI = test system: LOX IMVI
SW-620 = test system: SW-620
A498 = test system: A498
RPMI-8226 = test system: RPMI-8226

SMILES	GI50 (EKVX)	GI50 (HL-60)	GI50 (A549)	GI50 (PC-3)	GI50 (HCT-116)	GI50 (TK-10)	GI50 (MDA-N)	GI50 (M14)	GI50 (SN12C)	GI50 (MOLT-4)	GI50 (HOP-92)	GI50 (SR)	GI50 (SF-268)	GI50 (OVCAR-4)	GI50 (786-0)	GI50 (SNB-19)	GI50 (LOX IMVI)	GI50 (SW-620)	GI50 (A498)	GI50 (RPMI-8226)
NC(=O)NC(=O)CCC(NS(=O)(=O)c1ccccc1)C(=O)NC(N)=O (stereo not drawn)	> 100 µM (inactive)	> 100 µM (inactive)	> 100 µM (inactive)	> 100 µM (inactive)	> 100 µM (inactive)	> 100 µM (inactive)	> 100 µM (inactive)	> 100 µM (inactive)	> 100 µM (inactive)	> 100 µM (inactive)	> 100 µM (inactive)	> 100 µM (inactive)	> 100 µM (inactive)	> 100 µM (inactive)	> 100 µM (inactive)	> 100 µM (inactive)	> 100 µM (inactive)	> 100 µM (inactive)	> 100 µM (inactive)	
COc1cc(NCc2ccc3nc(-c4ccccc4)c(N)nc3c2)cc(OC)c1OC	33.2 µM (inactive)	25.6 µM (inactive)	30.8 µM (inactive)	28.2 µM (inactive)	18.1 µM (inactive)	41.4 µM (inactive)	27.5 µM (inactive)	18.4 µM (inactive)	38.5 µM (inactive)	23.3 µM (inactive)	12.5 µM (inactive)	37.8 µM (inactive)	34.8 µM (inactive)	29.3 µM (inactive)	35.6 µM (inactive)	46.2 µM (inactive)	41.9 µM (inactive)	48.5 µM (inactive)	23.3 µM (inactive)	
Cc1ccc(N2C3=C(CC4=C2CC(C)(C)CC4=O)C(=O)CC(C)(C)C3)cc1	> 100 µM (inactive)	> 100 µM (inactive)	> 100 µM (inactive)	> 100 µM (inactive)	> 100 µM (inactive)	> 100 µM (inactive)	> 100 µM (inactive)	> 100 µM (inactive)	> 100 µM (inactive)	> 100 µM (inactive)		> 100 µM (inactive)	> 100 µM (inactive)	> 100 µM (inactive)	> 100 µM (inactive)	> 100 µM (inactive)	> 100 µM (inactive)	> 100 µM (inactive)	> 100 µM (inactive)	> 100 µM (inactive)
CCC(NC(C)c1ccccc1)C(=O)c1ccc(OCc2ccccc2)c(OCc2ccccc2)c1 (stereo not drawn)	> 100 µM (inactive)	> 100 µM (inactive)	> 100 µM (inactive)	> 100 µM (inactive)	> 100 µM (inactive)	> 100 µM (inactive)	> 100 µM (inactive)	> 100 µM (inactive)	> 100 µM (inactive)		> 100 µM (inactive)	> 100 µM (inactive)	> 100 µM (inactive)	> 100 µM (inactive)	> 100 µM (inactive)	> 100 µM (inactive)	> 100 µM (inactive)	> 100 µM (inactive)		> 100 µM (inactive)
Nc1nncc2[nH]nnc12	> 100 µM (inactive)	12.8 µM (inactive)	> 100 µM (inactive)	> 100 µM (inactive)	> 100 µM (inactive)	> 100 µM (inactive)	> 100 µM (inactive)	> 100 µM (inactive)	> 100 µM (inactive)	17.4 µM (inactive)		22.9 µM (inactive)	> 100 µM (inactive)		> 100 µM (inactive)	> 100 µM (inactive)		83.6 µM (inactive)	> 100 µM (inactive)	> 100 µM (inactive)
COC1=CC2=NCCc3n[nH]c(c32)C1=O	16.9 µM (inactive)	0.0482 µM (active)	24.3 µM (inactive)	19.5 µM (inactive)	13.7 µM (inactive)	22.1 µM (inactive)	10.9 µM (inactive)	15 µM (inactive)	13.7 µM (inactive)	18.6 µM (inactive)		13.4 µM (inactive)			18.5 µM (inactive)	46 µM (inactive)	2.35 µM (inactive)	13.6 µM (inactive)	23.5 µM (inactive)	11.5 µM (inactive)
CN1CCN(/C(N)=C(\C#N)C(=O)Nc2ccc(Cl)cc2)CC1	78.2 µM (inactive)		> 100 µM (inactive)	39.8 µM (inactive)	41.6 µM (inactive)		52.4 µM (inactive)	30.6 µM (inactive)	> 100 µM (inactive)	54.8 µM (inactive)	> 100 µM (inactive)	35.1 µM (inactive)			95.5 µM (inactive)	> 100 µM (inactive)	47.9 µM (inactive)	> 100 µM (inactive)	40.4 µM (inactive)	27.5 µM (inactive)
COc1ccc(C2=CC(c3ccc4c(c3)OCO4)c3c(c4ccccc4oc3=O)O2)cc1OC (stereo not drawn)	4.16 µM (inactive)	0.351 µM (active)	2.78 µM (inactive)	2.42 µM (inactive)	0.824 µM (active)	2.75 µM (inactive)	0.324 µM (active)	3.54 µM (inactive)	5.56 µM (inactive)	3.42 µM (inactive)		0.486 µM (active)	5.07 µM (inactive)	98.4 µM (inactive)	1.13 µM (inactive)	2.53 µM (inactive)	1.26 µM (inactive)	0.933 µM (active)	0.91 µM (active)	2.64 µM (inactive)
Nc1nc(SCc2ccccn2)c2ncn(C3CCCC3)c2n1	> 100 µM (inactive)	97.3 µM (inactive)	> 100 µM (inactive)	> 100 µM (inactive)	> 100 µM (inactive)	> 100 µM (inactive)	> 100 µM (inactive)	> 100 µM (inactive)	> 100 µM (inactive)			> 100 µM (inactive)	70.5 µM (inactive)	> 100 µM (inactive)	> 100 µM (inactive)	> 100 µM (inactive)	> 100 µM (inactive)	> 100 µM (inactive)	> 100 µM (inactive)	> 100 µM (inactive)
Cc1nc2ccc(Cl)cc2c2c1CCS2		27.2 µM (inactive)	67 µM (inactive)	36.6 µM (inactive)	41.1 µM (inactive)	69.2 µM (inactive)	> 100 µM (inactive)	71.3 µM (inactive)	42 µM (inactive)	19.5 µM (inactive)		40.9 µM (inactive)	56.5 µM (inactive)	26.8 µM (inactive)	66.4 µM (inactive)	> 100 µM (inactive)	38 µM (inactive)	> 100 µM (inactive)	22 µM (inactive)	16.3 µM (inactive)
CCOC1CN(C)/C(=N\c2cccc3ccccc23)S1 (stereo not drawn)	> 10 µM (inactive)		> 10 µM (inactive)	> 10 µM (inactive)	> 10 µM (inactive)	> 10 µM (inactive)	> 10 µM (inactive)	> 10 µM (inactive)	> 10 µM (inactive)	> 10 µM (inactive)	> 10 µM (inactive)	> 10 µM (inactive)	> 10 µM (inactive)	> 10 µM (inactive)	> 10 µM (inactive)	> 10 µM (inactive)	> 10 µM (inactive)	> 10 µM (inactive)	> 10 µM (inactive)	> 10 µM (inactive)
COC(=O)C1=C(C(=O)OC)SC(=C2SC3=C(SC(=C4SCCS4)S3)S2)S1	> 100 µM (inactive)	> 100 µM (inactive)	> 100 µM (inactive)	> 100 µM (inactive)	> 100 µM (inactive)	> 100 µM (inactive)	> 100 µM (inactive)	> 100 µM (inactive)	> 100 µM (inactive)	> 100 µM (inactive)	> 100 µM (inactive)	> 100 µM (inactive)	> 100 µM (inactive)		> 100 µM (inactive)	> 100 µM (inactive)	> 100 µM (inactive)	> 100 µM (inactive)	> 100 µM (inactive)	> 100 µM (inactive)
COC(=O)CC1C2CC3C(C2=O)C13 (stereo not drawn)	> 100 µM (inactive)	33.6 µM (inactive)	> 100 µM (inactive)	> 100 µM (inactive)	> 100 µM (inactive)	> 100 µM (inactive)	> 100 µM (inactive)	> 100 µM (inactive)	> 100 µM (inactive)	> 100 µM (inactive)	> 100 µM (inactive)	> 100 µM (inactive)	> 100 µM (inactive)	> 100 µM (inactive)	> 100 µM (inactive)	> 100 µM (inactive)	> 100 µM (inactive)	> 100 µM (inactive)	> 100 µM (inactive)	
COc1cccc(-c2nc(-c3cnccn3)n(C3OC(CO)C(O)C3O)n2)c1 (stereo not drawn)	> 100 µM (inactive)	> 100 µM (inactive)	> 100 µM (inactive)	> 100 µM (inactive)	> 100 µM (inactive)	> 100 µM (inactive)	> 100 µM (inactive)	> 100 µM (inactive)	> 100 µM (inactive)	> 100 µM (inactive)	> 100 µM (inactive)	> 100 µM (inactive)	> 100 µM (inactive)	> 100 µM (inactive)	> 100 µM (inactive)	> 100 µM (inactive)	> 100 µM (inactive)	> 100 µM (inactive)		
COc1ccc2c(C)cc(=O)oc2c1OC	> 100 µM (inactive)		> 100 µM (inactive)	> 100 µM (inactive)	> 100 µM (inactive)	> 100 µM (inactive)	> 100 µM (inactive)	> 100 µM (inactive)	> 100 µM (inactive)	> 100 µM (inactive)		> 100 µM (inactive)	> 100 µM (inactive)	> 100 µM (inactive)	> 100 µM (inactive)	> 100 µM (inactive)	> 100 µM (inactive)	> 100 µM (inactive)	> 100 µM (inactive)	> 100 µM (inactive)
